# Measurements: US7582649B2, “Hydroxy alkyl substituted 1,3,8-triazaspiro[4.5]decan-4-one derivatives useful for the treatment of ORL-1 receptor mediated disorders” (Janssen Pharmaceutica, NV, priority 2002, dated 2009)
# Where two headings read alike, the source gives them in different places.
# Columns and labels:
# rats = details: rat, in vivo, ip
# D2 receptor = D2 receptor (Homo sapiens, UniProt P14416); assay: Filtration binding assay, dopamine (Spiperone-I125)
# mu opioid receptor = mu opioid receptor (Homo sapiens, UniProt P35372); assay: Filtration binding assay: mu opioid receptor
# kappa opioid receptor = kappa opioid receptor (Homo sapiens, UniProt P41145); assay: Filtration binding assay: kappa opioid receptor
# delta opioid receptor = delta opioid receptor (Homo sapiens, UniProt P41143); assay: Filtration binding assay: delta opioid receptor
# Long-Evans Hooded rats [1] = details: rat, in vivo; for Total Entries (EPM), % Change / Total Entries (EPM), Mean / reduction of total number of entries into various zones of the maze: male, Long-Evans Hooded; for Total Entries (EPM), % Change / Total Entries (EPM), Mean / reduction of total number of entries into various zones of the maze / % Open Arm Entries (EPM), % Change / % Open Arm Entries (EPM), Mean / % Open Arm Time (EPM), % Change / % Open Arm Time (EPM), Mean / percent open arm entries, increase as compared to vehicle: po
# Long-Evans Hooded rats [2] = details: male, rat, in vivo, po
# [3] = D2 receptor, Spiperone-I125, read-out: IC50
# Chain of kappa opioid receptor (P41145 whole entry): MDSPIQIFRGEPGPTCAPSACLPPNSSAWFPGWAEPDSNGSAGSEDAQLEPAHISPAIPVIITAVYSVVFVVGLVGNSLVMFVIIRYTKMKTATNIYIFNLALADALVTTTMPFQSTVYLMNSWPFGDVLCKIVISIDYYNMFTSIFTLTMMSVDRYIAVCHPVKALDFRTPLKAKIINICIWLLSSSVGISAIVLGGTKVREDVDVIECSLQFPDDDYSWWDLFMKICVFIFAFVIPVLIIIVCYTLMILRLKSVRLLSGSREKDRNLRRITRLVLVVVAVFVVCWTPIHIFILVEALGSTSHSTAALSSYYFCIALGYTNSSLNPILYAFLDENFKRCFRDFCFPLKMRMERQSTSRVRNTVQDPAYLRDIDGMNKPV
# Chain of mu opioid receptor (P35372 whole entry): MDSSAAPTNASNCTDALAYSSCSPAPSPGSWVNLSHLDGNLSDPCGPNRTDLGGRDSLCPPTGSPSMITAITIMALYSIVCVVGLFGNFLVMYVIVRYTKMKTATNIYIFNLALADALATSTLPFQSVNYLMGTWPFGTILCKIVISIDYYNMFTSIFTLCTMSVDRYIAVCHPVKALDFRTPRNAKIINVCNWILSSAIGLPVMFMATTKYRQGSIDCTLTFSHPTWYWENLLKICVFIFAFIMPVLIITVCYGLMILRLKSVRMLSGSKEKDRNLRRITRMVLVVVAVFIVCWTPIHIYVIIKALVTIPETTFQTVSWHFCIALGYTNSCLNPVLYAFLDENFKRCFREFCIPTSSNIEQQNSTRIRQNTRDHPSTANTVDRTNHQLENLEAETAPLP
# Chain of D2 receptor (P14416 whole entry): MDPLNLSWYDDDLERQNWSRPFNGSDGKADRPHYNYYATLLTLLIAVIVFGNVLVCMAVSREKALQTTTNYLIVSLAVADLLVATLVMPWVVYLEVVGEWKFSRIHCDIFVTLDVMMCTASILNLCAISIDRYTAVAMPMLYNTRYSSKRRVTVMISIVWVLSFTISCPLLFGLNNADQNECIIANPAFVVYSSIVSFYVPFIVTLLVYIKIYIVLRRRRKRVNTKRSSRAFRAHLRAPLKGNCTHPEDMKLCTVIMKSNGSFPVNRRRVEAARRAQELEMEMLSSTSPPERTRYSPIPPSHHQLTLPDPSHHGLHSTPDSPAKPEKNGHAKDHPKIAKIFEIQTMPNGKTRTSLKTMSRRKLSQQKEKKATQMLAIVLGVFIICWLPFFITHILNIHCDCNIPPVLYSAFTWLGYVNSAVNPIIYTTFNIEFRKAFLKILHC
# Chain of delta opioid receptor (P41143 whole entry): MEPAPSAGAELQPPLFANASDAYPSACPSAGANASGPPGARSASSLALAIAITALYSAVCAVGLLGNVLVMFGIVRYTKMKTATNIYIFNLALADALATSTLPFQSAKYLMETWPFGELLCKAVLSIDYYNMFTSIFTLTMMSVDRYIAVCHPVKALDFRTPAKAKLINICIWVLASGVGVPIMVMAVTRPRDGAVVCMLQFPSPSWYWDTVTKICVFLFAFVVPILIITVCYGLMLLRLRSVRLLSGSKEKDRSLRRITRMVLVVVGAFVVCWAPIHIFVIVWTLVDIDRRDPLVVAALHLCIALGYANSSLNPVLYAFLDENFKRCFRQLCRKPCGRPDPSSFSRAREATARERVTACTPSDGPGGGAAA
smiles,measurement,setting,value
"CCCCN(Cc1ccccc1)C[C@H](O)CN1CN(c2ccc(F)cc2)C2(CCN(CC3CCCCCCC3)CC2)C1=O [Compound #64, 3-[3-(Benzyl-butyl-amino)-2-(S)-hydroxy-propyl]-8-cyclooctylmethyl-1-(4-fluoro-phenyl)-1,3,8-triaza-spiro[4.5]decan-4-one]",% Increase Mean No. of Shocks,rats; 0.3 mg/kg,−10%
same,% Increase Mean No. of Shocks,rats; 1 mg/kg,25%
same,% Increase Mean No. of Shocks,rats; 3 mg/kg,96%
same,% Increase Mean No. of Shocks,rats; 10 mg/kg,150%
same,% Increase Mean No. of Shocks,rats; 30 mg/kg,−26%
"O=C1N(C[C@@H](O)CNc2ccncc2)CN(c2ccc(F)cc2)C12CCN(C1Cc3cccc4cccc1c34)CC2 (stereo partly shown) [Compound #327, 8-Acenaphthen-1-yl-1-(4-fluoro-phenyl)-3-[2-hydroxy-3-(pyridin-4-ylamino)-propyl]-1,3,8-triaza-spiro[4.5]decan-4-one]",IC50,D2 receptor,0.387 µM
"NC[C@H](O)CN1CN(c2ccc(F)cc2)C2(CCN([C@@H]3Cc4cccc5cccc3c45)CC2)C1=O [Compound #424, (R)-8-Acenaphthen-1-yl-3-(3-amino-2-hydroxy-(S)-propyl)-1-(4-fluoro-phenyl)-1,3,8-triaza-spiro[4.5]decan-4-one]",IC50,mu opioid receptor,0.28 µM
same,IC50,kappa opioid receptor,0.6 µM
same,IC50,delta opioid receptor,0.28 µM
same,IC50,D2 receptor; [3],0.278 µM
same,"Total Entries (EPM), % Change",Long-Evans Hooded rats [1]; 0.3 mg/kg,−6.9%
same,"Total Entries (EPM), Mean",Long-Evans Hooded rats [1]; 0.3 mg/kg,90.0
same,"Total Entries (EPM), % Change",Long-Evans Hooded rats [1]; 1 mg/kg,−5.3%
same,"Total Entries (EPM), Mean",Long-Evans Hooded rats [1]; 1 mg/kg,91.5
same,reduction of total number of entries into various zones of the maze,Long-Evans Hooded rats [1]; 1 mg/kg,18.6%
same,"Total Entries (EPM), % Change",Long-Evans Hooded rats [1]; 3 mg/kg,−0.4%
same,"Total Entries (EPM), Mean",Long-Evans Hooded rats [1]; 3 mg/kg,96.3
same,reduction of total number of entries into various zones of the maze,Long-Evans Hooded rats [1]; 3 mg/kg,60.3%
same,"Total Entries (EPM), % Change",Long-Evans Hooded rats [1]; 10 mg/kg,6.1%
same,"Total Entries (EPM), Mean",Long-Evans Hooded rats [1]; 10 mg/kg,102.6
same,reduction of total number of entries into various zones of the maze,Long-Evans Hooded rats [1]; 10 mg/kg,76.7%
same,percent open arm entries,Long-Evans Hooded rats [1],significant increases
same,percent open arm time,Long-Evans Hooded rats [1],significant increases
same,"percent open arm time, increase as compared to vehicle",Long-Evans Hooded rats [1],97.5%
same,"% Open Arm Entries (EPM), % Change",Long-Evans Hooded rats [1]; 0.3 mg/kg,33.8%
same,"% Open Arm Entries (EPM), Mean",Long-Evans Hooded rats [1]; 0.3 mg/kg,7.33%
same,"% Open Arm Time (EPM), % Change",Long-Evans Hooded rats [1]; 0.3 mg/kg,70.1%
same,"% Open Arm Time (EPM), Mean",Long-Evans Hooded rats [1]; 0.3 mg/kg,9.80%
same,"% Open Arm Entries (EPM), % Change",Long-Evans Hooded rats [1]; 1 mg/kg,36.7%
same,"% Open Arm Entries (EPM), Mean",Long-Evans Hooded rats [1]; 1 mg/kg,7.49%
same,"% Open Arm Time (EPM), % Change",Long-Evans Hooded rats [1]; 1 mg/kg,69.4%
same,"% Open Arm Time (EPM), Mean",Long-Evans Hooded rats [1]; 1 mg/kg,9.76%
same,"% Open Arm Entries (EPM), % Change",Long-Evans Hooded rats [1]; 3 mg/kg,44.5%
same,"% Open Arm Entries (EPM), Mean",Long-Evans Hooded rats [1]; 3 mg/kg,7.92%
same,"% Open Arm Time (EPM), % Change",Long-Evans Hooded rats [1]; 3 mg/kg,75.3%
same,"% Open Arm Time (EPM), Mean",Long-Evans Hooded rats [1]; 3 mg/kg,10.1%
same,"percent open arm entries, increase as compared to vehicle",Long-Evans Hooded rats [1]; 3 mg/kg,205%
same,"% Open Arm Entries (EPM), % Change",Long-Evans Hooded rats [1]; 10 mg/kg,36.7%
same,"% Open Arm Entries (EPM), Mean",Long-Evans Hooded rats [1]; 10 mg/kg,7.49%
same,"% Open Arm Time (EPM), % Change",Long-Evans Hooded rats [1]; 10 mg/kg,30.9%
same,"% Open Arm Time (EPM), Mean",Long-Evans Hooded rats [1]; 10 mg/kg,7.54%
same,"percent open arm entries, increase as compared to vehicle",Long-Evans Hooded rats [1]; 10 mg/kg,237%
same,"Horizontal Activity (SMA), % Change",Long-Evans Hooded rats [2]; 0.3 mg/kg,5.3%
same,"Horizontal Activity (SMA), Mean",Long-Evans Hooded rats [2]; 0.3 mg/kg,3033
same,"Vertical Movement (SMA), % Change",Long-Evans Hooded rats [2]; 0.3 mg/kg,11.2%
same,"Vertical Movement (SMA), Mean",Long-Evans Hooded rats [2]; 0.3 mg/kg,54.6
same,"Horizontal Activity (SMA), % Change",Long-Evans Hooded rats [2]; 1 mg/kg,−4.5%
same,"Horizontal Activity (SMA), Mean",Long-Evans Hooded rats [2]; 1 mg/kg,2752
same,"Vertical Movement (SMA), % Change",Long-Evans Hooded rats [2]; 1 mg/kg,2.4%
same,"Vertical Movement (SMA), Mean",Long-Evans Hooded rats [2]; 1 mg/kg,50.3
same,reduction in number of vertical movements (rearing behavior),Long-Evans Hooded rats [2]; 1 mg/kg,17.8%
same,"Horizontal Activity (SMA), % Change",Long-Evans Hooded rats [2]; 3 mg/kg,14.5%
same,"Horizontal Activity (SMA), Mean",Long-Evans Hooded rats [2]; 3 mg/kg,3300
same,"Vertical Movement (SMA), % Change",Long-Evans Hooded rats [2]; 3 mg/kg,15.7%
same,"Vertical Movement (SMA), Mean",Long-Evans Hooded rats [2]; 3 mg/kg,56.8
same,reduction in horizontal activity,Long-Evans Hooded rats [2]; 3 mg/kg,55%
same,reduction in number of vertical movements (rearing behavior),Long-Evans Hooded rats [2]; 3 mg/kg,73.4%
same,"Horizontal Activity (SMA), % Change",Long-Evans Hooded rats [2]; 10 mg/kg,−10.2%
same,"Horizontal Activity (SMA), Mean",Long-Evans Hooded rats [2]; 10 mg/kg,2588
same,"Vertical Movement (SMA), % Change",Long-Evans Hooded rats [2]; 10 mg/kg,−10.1%
same,"Vertical Movement (SMA), Mean",Long-Evans Hooded rats [2]; 10 mg/kg,44.2
same,reduction in horizontal activity,Long-Evans Hooded rats [2]; 10 mg/kg,83.7%
same,reduction in number of vertical movements (rearing behavior),Long-Evans Hooded rats [2]; 10 mg/kg,93.9%
"CCN(C)C[C@H](O)CN1CN(c2ccc(F)cc2)C2(CCN(Cc3cccc4cccc(C)c34)CC2)C1=O [Compound #440, 3-[3-(Ethyl-methyl-amino)-2-hydroxy-(S)-propyl]-1-(4-fluoro-phenyl)-8-(8-methyl-naphthalen-1-ylmethyl)-1,3,8-triaza-spiro[4.5]decan-4-one]",IC50,mu opioid receptor,> 10 µM
same,IC50,kappa opioid receptor,> 10 µM
same,IC50,D2 receptor; [3],1.52 µM
CCN(C)C[C@H](O)CN1CN(c2ccc(F)cc2)C2(CCN([C@H]3Cc4cccc5cccc3c45)CC2)C1=O [compound 433],IC50,D2 receptor,3.52 µM
Cc1cccc2cccc(CN3CCC4(CC3)C(=O)N(CC(O)CN3CCC(N(C)C(=O)OC(C)(C)C)C3)CN4c3ccc(F)cc3)c12 (stereo not shown) [compound 721],Ki,mu opioid receptor,0.59 µM
same,Ki,kappa opioid receptor,0.17 µM
same,Ki,delta opioid receptor,> 5 µM
CC1(C)[C@H]2CC=C(CN3CCC4(CC3)C(=O)N(C[C@@H]3CO3)CN4c3ccc(F)cc3)[C@@H]1C2 [compound 727],Ki,mu opioid receptor,0.12 µM
same,Ki,kappa opioid receptor,0.21 µM
same,Ki,delta opioid receptor,> 5 µM
